Assay results reported in patent US12590100B2, “Tetrahydro-spiroindoline-pyrrolopyrrole-triones inhibitors of the NRF2-β-TrCP interaction for use in the treatment of fatty liver disease” (Universidad Autonoma De Madrid, priority 2021, dated 2026).
Entries after “also recorded” stand apart in the source; their conditions may differ.

Legend:
[1] = test system: transcriptional activity of NRF2; test: ARE luciferase reporter assay in MCF-7 c32 ARE-LUC cells; assay type: cell-based; details: 9 μM, 16 h
Method: FIG. 4. […] MEFs in serum-depleted conditions were subjected to (A-C) 1 μM, 3 μM, or 10 μM of PHAR and 10 μM of SFN as a positive control for 16 h; or (D-F) 10 μM of PHAR for the indicated times. In both experiments, 0.1% DMSO was used as a vehicle. A), representative immunoblots of NRF2, HO1, KEAP1, LAMINB, and GAPDH as loading controls. B) and C), densitometric analysis of NRF2 and HO1 protein levels of the representative immunoblots depicted in (A), expressed as a ratio of NRF2/LAMINB or HO1/GAPDH. The data is depicted as means±SEM (n=3). Statistical analysis was performed with one-way ANOVA followed by the Bonferroni test to check inter-group differences. *p<0.05; ***p<0.001 vs. 0. D), representative immunoblots of NRF2, HO1, KEAP1, LAMINB, and GAPDH as loading controls. E) and F), Densitometric analysis of NRF2 and HO1 protein levels of the representative immunoblots of (D), expressed as a ratio of NRF2/LAMINB or HO1/GAPDH. The data is depicted as means±SEM (n=3). Statistical analysis was performed with one-way ANOVA followed by the Bonferroni test to check inter-group differences. *p<0.05; ***p<0.001 vs. 0. […] Luciferase activity was measured after 16 h of treatment. […] The mRNA levels of Hmox1, Nqo1, Aox1, Glc, and Gclm after 8 h of treatment were determined by means of pRT-PCR and normalized by means of average LaminB, Gapdh, and β-actin. […]

β-TrCP1 and β-TrCP2 = test: NRF2/HO-1 induction after lentiviral silencing of β-TrCP1/2 in Keap1−/− MEFs; assay type: cell-based, mouse
Method: In vitro kinase assay and in vitro ubiquitination. For the recognition and degradation of NRF2 by βTrCP, the serines 335, 338, 342 and 347 located at the Neh6 domain of NRF2 need to be previously phosphorylated by the kinase GSK-3β (FIG. 1). Therefore, to obtain the phosphorylated substrate, 20 ng recombinant NRF2-DETGE was used together with 0.5 μg of recombinant GSK-3β incubated at 30° C. for 60 min. The result was analyzed by western blot. After confirming the existence of phosphorylation in the residues of interest, an in vitro ubiquitination assay was carried out using the recombinant proteins that make up the E3 ubiquitin ligase complex. The ubiquitination reaction was carried out using: ATP (2 mM), […], SCF-βTrCP (450 nM), and non-phosphorylated or phosphorylated NRF2 (20 ng), in a specific ubiquitination buffer (30 mM Tris pH 7.6, 5 mM MgCl2, 2 mM dithiothreitol, 100 mM NaCl). Before the ubiquitination reactions, the E1, Cdc34b, and ubiquitin components were incubated together for 2 min to allow the E2 thioester bond to form. The reactions were incubated for 1 hour at 25° C. in the presence or absence of PHAR (3 μM) in order to determine whether or not PHAR inhibits ubiquitination by βTrCP. […] The PI3K/AKT signaling pathway is inhibited, and therefore GSK-3β is activated with the PI3K inhibitor, LY294002. As a result, NRF2 is phosphorylated by GSK-3β and marked for degradation by means of interaction with β-TrCP. Therefore, if PHAR is capable of inhibiting βTrCP-NRF2 interaction, the NRF2 levels will remain stable independently of the activation and phosphorylation by GSK-3β. The obtained result corroborates this. • 3. Using lentiviral silencing of the two isoforms described for β-TrCP (β-TrCP1 and β-TrCP2) in MEFs originating from Keap1 knockout mice (Keap′1−/−).
FIG. 6. PHAR increases NRF2 protein levels in a β-TrCP-dependent manner. A) In vitro phosphorylation of recombinant NRF2-DETGE by recombinant GSK-3β. Phosphorylation at residues 335, 338, 342 and 347 was analyzed by western blot. B) In vitro ubiquitination of NRF2 or pNRF2 by the βTrCP complex. NRF2 and pNRF2 (20 ng) were incubated at 25° C. for 1 h with purified ubiquitin, E1/cdc34b, βTrCP/Skp1 and Cull/Rbx1 as indicated in the presence or absence of PHAR […] or vehicle (DMSO). Polyubiquitinated NRF2 was detected by western blot with anti-ubiquitin antibody. […] E), densitometric analysis of NRF2 protein levels of the representative immunoblot of (D), expressed as a ratio of NRF2/GAPDH. […] G), densitometric analysis of NRF2 and HO1 protein levels of the representative immunoblots of (F), expressed as a ratio of NRF2 and HO1/GAPDH. […]

O=C1[C@@H]2[C@H](Cc3c[nH]c4ccccc34)N[C@]3(C(=O)Nc4ccc(Cl)cc43)[C@@H]2C(=O)N1c1ccc2c(c1)OCCO2 [PHAR]
increase in luciferase activity [1]: ~4 fold
HO-1 accumulation in sh β-TrCP1/2 cells compared with shCTRL (β-TrCP1 and β-TrCP2; PHAR 10 μM): considerably lower; also recorded: lower in cells lacking β-TrCP1/2
Hmox1 and Nqo1 mRNA induction in sh β-TrCP1/2 cells (β-TrCP1 and β-TrCP2; PHAR 10 μM): induction generated by PHAR is lost
NRF2 levels in shCTRL cells (β-TrCP1 and β-TrCP2; PHAR 10 μM, 2, 4, 8 h): increase in NRF2 levels from 2 h to 8 h
NRF2 accumulation in sh β-TrCP1/2 cells compared with shCTRL (β-TrCP1 and β-TrCP2; silencing about 50%, PHAR 10 μM): considerably lower; also recorded: significantly lower compared with shCTRL cells
